Results reported in ChEMBL document CHEMBL1909294, “Translating clinical findings into knowledge in drug safety evaluation--drug induced liver injury prediction system (DILIps)” (PLoS Comput Biol, 2011).

What was measured:
[1] = tested on: Hepatotoxicity;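 for HepSE cirrhosis: cirrhosis hepatic side effect score taken from the DILIps (drug-induced liver injury prediction) training set; call rule not given here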; for HepSE hepatic failure: call rule not given here;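 for HepSE hepatitis: Hepatitis-related hepatic side effect score taken from the training data of DILIps, a prediction system for drug-induced liver injury; call rule not given here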;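 for HepSE hepatomegaly: hepatic side effect score for hepatomegaly, taken from the training set of the DILIps drug-induced liver injury prediction system; call rule not given here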;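 for HepSE jaundice: Jaundice-related hepatic side-effect score drawn from the training data of the DILIps (drug-induced liver injury prediction system); call rule not given here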; for HepSE liver disease: call rule not given here;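 for HepSE liver fatty: hepatic side effect score for fatty liver, taken from the DILIps training set for predicting drug-induced liver injury; call rule not given here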
[2] = tested on: Hepatotoxicity; remark: listed apart in the source;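 for HepSE cirrhosis: cirrhosis hepatic side effect score taken from the DILIps (drug-induced liver injury prediction) training set; call rule not given here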; for HepSE hepatic failure: call rule not given here;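 for HepSE hepatitis: Hepatitis-related hepatic side effect score taken from the training data of DILIps, a prediction system for drug-induced liver injury; call rule not given here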;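 for HepSE hepatomegaly: hepatic side effect score for hepatomegaly, taken from the training set of the DILIps drug-induced liver injury prediction system; call rule not given here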;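 for HepSE jaundice: Jaundice-related hepatic side-effect score drawn from the training data of the DILIps (drug-induced liver injury prediction system); call rule not given here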; for HepSE liver disease: call rule not given here;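 for HepSE liver fatty: hepatic side effect score for fatty liver, taken from the DILIps training set for predicting drug-induced liver injury; call rule not given here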
[3] = tested on: Hepatotoxicity; remark: listed apart in the source;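 for HepSE cirrhosis: cirrhosis hepatic side effect score taken from the DILIps (drug-induced liver injury prediction) training set; call rule not given here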; for HepSE hepatic failure: call rule not given here;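 for HepSE hepatitis: Hepatitis-related hepatic side effect score taken from the training data of DILIps, a prediction system for drug-induced liver injury; call rule not given here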;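 for HepSE hepatomegaly: hepatic side effect score for hepatomegaly, taken from the training set of the DILIps drug-induced liver injury prediction system; call rule not given here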;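 for HepSE jaundice: Jaundice-related hepatic side-effect score drawn from the training data of the DILIps (drug-induced liver injury prediction system); call rule not given here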; for HepSE liver disease: call rule not given here;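 for HepSE liver fatty: hepatic side effect score for fatty liver, taken from the DILIps training set for predicting drug-induced liver injury; call rule not given here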
[4] = tested on: Hepatotoxicity; remark: listed apart in the source;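 for HepSE cirrhosis: cirrhosis hepatic side effect score taken from the DILIps (drug-induced liver injury prediction) training set; call rule not given here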; for HepSE hepatic failure: call rule not given here;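 for HepSE hepatitis: Hepatitis-related hepatic side effect score taken from the training data of DILIps, a prediction system for drug-induced liver injury; call rule not given here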;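 for HepSE hepatomegaly: hepatic side effect score for hepatomegaly, taken from the training set of the DILIps drug-induced liver injury prediction system; call rule not given here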;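 for HepSE jaundice: Jaundice-related hepatic side-effect score drawn from the training data of the DILIps (drug-induced liver injury prediction system); call rule not given here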; for HepSE liver disease: call rule not given here;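 for HepSE liver fatty: hepatic side effect score for fatty liver, taken from the DILIps training set for predicting drug-induced liver injury; call rule not given here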
[5] = tested on: Hepatotoxicity; remark: listed apart in the source; for HepSE hepatic failure: call rule not given here; for HepSE liver disease: call rule not given here
[6] = tested on: Hepatotoxicity; remark: listed apart in the source; for HepSE hepatic failure: call rule not given here; for HepSE liver disease: call rule not given here
[7] = tested on: Hepatotoxicity; remark: listed apart in the source
[8] = tested on: Hepatotoxicity; remark: listed apart in the source
[9] = tested on: Hepatotoxicity; remark: listed apart in the source
[10] = tested on: Hepatotoxicity; remark: listed apart in the source
[11] = tested on: Hepatotoxicity; remark: listed apart in the source
[12] = tested on: Hepatotoxicity; remark: listed apart in the source
[13] = tested on: Hepatotoxicity; remark: listed apart in the source
[14] = tested on: Hepatotoxicity; remark: listed apart in the source

SMILES	HepSE_hepatitis [1]	HepSE_jaundice [2]	HepSE_liver fatty [3]	HepSE_liver disease [4]	HepSE_hepatic failure [5]	HepSE_cirrhosis [6]	HepSE_hepatic necrosis [7]	HepSE_hepatomegaly [8]	HepSE_cholecystitis [9]	HepSE_cholelithiasis [10]	HepSE_bilirubinemia [11]	HepSE_elevated liver function tests [12]	HepSE_Combined Scores [13]	HepSE_liver function tests abnormal [14]	further results
CO/N=C(\C(=O)N[C@@H]1C(=O)N2C(C(=O)O)=C(COC(N)=O)CS[C@H]12)c1ccco1 [CEFUROXIME]	1	1	0	0	0	0	0	0	0	0	0	0	2	0	–
NCC[C@H](O)C(=O)N[C@@H]1C[C@H](N)[C@@H](O[C@H]2O[C@H](CN)[C@@H](O)[C@H](O)[C@H]2O)[C@H](O)[C@H]1O[C@H]1O[C@H](CO)[C@@H](O)[C@H](N)[C@H]1O [AMIKACIN]	0	0	0	0	0	0	0	0	0	0	0	0	0	0	–
NCC1(CC(=O)O)CCCCC1 [GABAPENTIN]	1	1	0	0	1	0	0	1	1	1	0	1	8	1	–
CCCC(C)(COC(N)=O)COC(=O)NC(C)C (stereo not drawn) [CARISOPRODOL]	0	0	0	0	0	0	0	0	0	0	0	0	0	0	–
CCOC(=O)O[C@]1(C(=O)COC(=O)CC)CC[C@H]2[C@@H]3CCC4=CC(=O)C=C[C@]4(C)[C@H]3[C@@H](O)C[C@@]21C [PREDNICARBATE]	0	0	0	0	0	0	0	0	0	0	0	0	0	0	–
OCc1cc(C(O)CNCCCCCCOCCCCc2ccccc2)ccc1O (stereo not drawn) [SALMETEROL]	0	0	0	0	0	0	0	0	0	0	0	0	0	0	–
Clc1ccc(C(c2ccccc2Cl)C(Cl)Cl)cc1 (stereo not drawn) [MITOTANE]	0	0	0	0	0	0	0	0	0	0	0	0	0	0	–
CCCCc1ncc(/C=C(\Cc2cccs2)C(=O)O)n1Cc1ccc(C(=O)O)cc1 [EPROSARTAN]	0	0	0	0	0	0	0	0	0	0	0	0	0	0	–
COc1ccc2c(c1)c(CC(=O)O)c(C)n2C(=O)c1ccc(Cl)cc1 [INDOMETHACIN]	0	1	0	0	0	0	0	0	0	0	0	0	1	0	–
Oc1ncnc2[nH]ncc12 [ALLOPURINOL]	1	1	0	0	0	0	1	1	0	0	1	0	5	0	–
CC1(C)S[C@@H]2[C@H](NC(=O)[C@H](N)c3ccccc3)C(=O)N2[C@H]1C(=O)O [AMPICILLIN]	0	0	0	0	0	0	0	0	0	0	0	0	0	0	–
CN(Cc1ccc(C(C)(C)C)cc1)Cc1cccc2ccccc12 [BUTENAFINE]	0	0	0	0	0	0	0	0	0	0	0	0	0	0	–
COC(=O)[C@H](c1ccccc1Cl)N1CCc2sccc2C1 [CLOPIDOGREL]	–	–	–	–	–	–	–	–	–	–	–	–	–	–	HepSE_hepatitis ([1]; Liver): 1; HepSE_jaundice ([2]; Liver): 0; HepSE_liver fatty ([3]; Liver): 1; HepSE_liver disease ([4]; Liver): 0; HepSE_hepatic failure ([5]; Liver): 1; HepSE_cirrhosis ([6]; Liver): 0; HepSE_hepatic necrosis ([7]; Liver): 0; HepSE_hepatomegaly ([8]; Liver): 0; HepSE_cholecystitis ([9]; Liver): 0; HepSE_cholelithiasis ([10]; Liver): 0; HepSE_bilirubinemia ([11]; Liver): 1; HepSE_elevated liver function tests ([12]; Liver): 0; HepSE_Combined Scores ([13]; Liver): 4; HepSE_liver function tests abnormal ([14]; Liver): 0
C[N+](C)(C)CC(O)CC(=O)[O-] (stereo not drawn) [CARNITINE]	0	0	0	0	0	0	0	0	0	0	0	0	0	0	–
COc1ccc(CC2c3cc(OC)c(OC)cc3CC[N+]2(C)CCC(=O)OCCCCCOC(=O)CC[N+]2(C)CCc3cc(OC)c(OC)cc3C2Cc2ccc(OC)c(OC)c2)cc1OC (stereo not drawn)	0	0	0	0	0	0	0	0	0	0	0	0	0	0	–
CN1C2CCCC1CC(NC(=O)c1nn(C)c3ccccc13)C2 (stereo not drawn) [GRANISETRON]	0	1	0	0	0	0	0	0	0	0	1	0	3	1	–
COC(c1ccccc1)(c1ccccc1)[C@H](Oc1nc(C)cc(C)n1)C(=O)O [AMBRISENTAN]	0	0	0	0	0	0	0	0	0	0	0	0	0	0	–
